Experimental data as given in US20250163057A1, “DCN-1 MODULATING COMPOUNDS AND METHODS OF USE THEREOF” (Cellarity, Inc., priority 2023, published 2025).

Experiments:
[1] = test system: Cullin-3 (CUL3) neddylation; assay: AlphaLISA assay for Cullin-3 (CUL3) neddylation in TF 1 cells; format: cell-based; details: Homo sapiens, TF-1, 3 h, 3 hours treatment
How it was run: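 TF 1 cells in unsupplemented IMDM treated with compound concentrations for 3 h, then lysed. CUL3 neddylation detected by AlphaLISA (biotinylated anti-NEDD8, anti-CUL3 acceptor beads overnight, streptavidin donor beads 1 h); normalized to vehicle (0%) and 1 μM DI-1548 (100%), IC50 from Hill fits.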

[2] = test system: fetal hemoglobin gene HBG1; assay: HBG1 Nanostring Assay in CD34+ HSPC erythroid differentiation culture; format: cell-based, human; details: for EC50: Homo sapiens, 240 h, HBG1 induction, Day10 of erythroid differentiation; for Nanostring Ymax obs (%): relative to a control compound (C1)
How it was run: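 CD34+ HSPCs were dosed from day −2 (0.1% DMSO) through two-phase erythroid differentiation (EPO, transferrin, SCF, IL-3, insulin; IL-3 removed from day 7) at 37° C, 5% CO2. Day-10 lysates of 100K cells were hybridized at 67° C for 22 h for nCounter counting, normalized to ERCC and housekeeping controls. EC50 and Ymax were derived, with Ymax relative to a control compound.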

For `CCc1cccc(C(=O)N[C@@H]2C(=O)N(CC)c3c(c(C(=O)N4[C@H](C#N)C[C@H]5C[C@H]54)nn3C3CCOCC3)[C@@H]2C2CC2)c1` [Compound I-552, N-((4S,5S)-3-((1R,3S,5R)-3-cyano-2-azabicyclo[3.1.0]hexane-2-carbonyl)-4-cyclopropyl-7-ethyl-6-oxo-1-(tetrahydro-2H-pyran-4-yl)-4,5,6,7-tetrahydro-1H-pyrazolo[3,4-b]pyridin-5-yl)-3-ethylbenzamide], the IC50 [1] was at most 100 nM, the EC50 [2] was at most 100 nM and the “Nanostring Ymax obs (%)” value [2] was “+++ (Nanostring Ymax greater than 100.0)”.
`CCN1C(=O)[C@@H](NC(=O)c2cccc(C(F)(F)F)c2)[C@@H](C2CC2)c2c(C(=O)N3CCNC[C@H]3C#N)nn(C3CCOCC3)c21` [Compound I-582] was tested, and the IC50 [1] was at most 100 nM, the EC50 [2] was 100 to 1000 nM and the “Nanostring Ymax obs (%)” value [2] was “+++ (Nanostring Ymax greater than 100.0)”.
In the case of `CCN1C(=O)[C@@H](NC(=O)c2cccc(C(F)(F)F)c2)[C@@H](C2CC2)c2c(C(=O)N3CS(=O)(=O)C[C@H]3C#N)nn(C3CCOCC3)c21` [Compound I-617], the IC50 [1] is reported as at most 100 nM and the “Nanostring Ymax obs (%)” value [2] is reported as “+ (Nanostring Ymax greater than or equal to 0.0 and less than or equal to 50.0)”.
In the case of `CCN1C(=O)[C@@H](NC(=O)c2cccc(C(F)(F)F)c2)[C@@H](C2CCC2)c2c(C(=O)N3CCC[C@H]3C#N)nn(C3CCOCC3)c21` [Compound I-692], the IC50 [1] is reported as at most 100 nM, the EC50 [2] is reported as at most 100 nM and the “Nanostring Ymax obs (%)” value [2] is reported as “+++ (Nanostring Ymax greater than 100.0)”.
